Assay results taken from US20050281891A1, “Testosterone stimulant” (Ecobio, Inc., priority 2004, published 2005).

Tested on: systemic testosterone levels
Test: Testosterone stimulation in rats: iron, chitosan and iron chitosan chelate vs placebo
Format: in vivo, Sprague Dawley rats
Conditions: 8-week old rats, oral 200 μL twice a day for 7 days; 0.12 wt % iron lactate, 1 wt % chitosan or 1 wt % iron chitosan chelate
Procedure: The effects of an iron chitosan chelate, chitosan, and iron on systemic testosterone levels in test groups of 8-week old Sprague Dawley rats is observed and compared to a control group. Each of the groups includes 8 rats. The rats of each group are orally administered a liquid composition twice a day, where group 1 receives a carrier composition in the form of a placebo, group 2 receives the carrier enhanced with 200 μL of 0.12 wt % iron lactate, group 3 receives the carrier enhanced with 200 μL of 1 wt % chitosan having a weight average molecular weight of 19,500 Mw, and group 4 receives the carrier enhanced with 200 μL of 1 wt % iron chitosan chelate (chitosan weight average molecular weight 19,500 Mw). The effects of the iron, chitosan, and iron chitosan chelate in systemic testosterone levels are compared to the systemic testosterone levels of the rats administered with the carrier placebo alone. After 7 days of dosing the 4 rat groups twice per day, the impact of the test groups compared to the control group on the rats testosterone levels is recorded, and is set forth in Table 1.

CC(O)C(=O)[O-].CC(O)C(=O)[O-].[Fe+2] (centres unmarked) [Iron, iron lactate]
% Increase from Placebo: ˜0% | Testosterone Level: 358.1 ± 23.6 (pg/100 μL)
